Reference: patent US20070203149A1, “CCR5 ANTAGONISTS USEFUL FOR TREATING HIV” (Schering Corporation, priority 2006, published 2007)

Tests used:
[1] = test system: primary R5 HIV 1 clinical isolates; experiment: Inhibition of viral replication in human PBMCs infected with primary R5 HIV 1 clinical isolates; format: cell-based; settings: for IC50: Human immunodeficiency virus 1, PBMC, human PBMCs infected with primary R5 HIV 1 clinical isolates, read-out: median IC50, inhibition of viral replication
Protocol: This assay uses primary peripheral blood mononuclear cells or the stable U87-CCR5 cell line to determine the effect of anti-CCR5 compounds to block infection of primary HIV-1 strains. The primary lymphocytes are purified from normal healthy donors and stimulated in vitro with PHA and IL-2 three days prior to infection. Using a 96-well plate format, cells are pretreated with drug for 1 hour at 37° C. and subsequently infected with an M-tropic HIV-1 isolates. Following infection, the cells are washed to remove residual inoculum and cultured in the presence of compound for 4 days. Culture supernatants are harvested and viral replication measured by determination of viral p24 antigen concentration.

[2] = Human rising single dose study: metabolite profiling of plasma and urine by LC-MS/MS after oral compound of formula A; format: in vivo
Protocol: (M5a/M5b/M5c/M5d are potential rotamers of the compound of Formula I)
In a human rising single dose study, plasma levels of the compound of formula I relative to the compound of formula A were assessed in blood samples drawn at 2, 8, and 24 hr following oral administration of the compound of formula A. An in-house metabolite profiling method using LC-MS/MS detection was employed for this assessment. Based on this qualitative assessment of the compound of formula I in human plasma, the concentrations of the compound of formula I are projected to be up to 3-fold higher than the compound of formula A in human plasma (see FIG. 5). This is considered to be a surprising and unexpected result.

| Compound | IC50 [1] | in vitro potency relative to the compound of formula A ([1]; human PBMCs, primary R5 HIV 1 isolates, ratio of median IC50 values) | metabolite status in human urine ([2]; 0-24 hr urine, single oral 50 mg compound of Formula A, healthy male volunteers) | metabolite status in clinical samples ([2]; first-in-man studies after administration of compound of formula A) | plasma concentration relative to the compound of formula A ([2]; human plasma, samples at 2, 8 and 24 hr after oral compound of formula A, projected from qualitative assessment) | metabolite status in human plasma ([2]; plasma 2 hr, single oral 50 mg compound of Formula A, healthy male volunteers) | susceptibility to further metabolism ([2]; stated as consequence of being a major metabolite) |
| --- | --- | --- | --- | --- | --- | --- | --- |
| Cc1ncnc(C)c1C(=O)N1CCC(C)(N2CCN([C@@H](c3cccc(F)c3)C3CCN(S(=O)(=O)C4CC4)CC3)[C@@H](C)C2)CC1 [compound of formula A, reference compound] | 1 nM |  |  |  |  |  |  |
| Cc1nc[n+]([O-])c(C)c1C(=O)N1CCC(C)(N2CCN([C@@H](c3cccc(F)c3)C3CCN(S(=O)(=O)C4CC4)CC3)[C@@H](C)C2)CC1 [compound of formula I] | 8 nM | approximately ⅛ | significant metabolite | major metabolite | up to 3 fold | significant metabolite | less susceptible to further rapid metabolism |
| COC[C@@H](c1ccc(C(F)(F)F)cc1)N1CCN(C2(C)CCN(C(=O)c3c(C)ncnc3C)CC2)C[C@@H]1C [SCH-417690, reference compound] | 7.5 nM |  |  |  |  |  |  |
